Measured values as given in US11028136B2, “Tumor antigen peptide” (Sapporo Medical University, priority 2014, dated 2021).

How the values were obtained:
Format in all cases: cell-based
CaSki cell line [1] = test: Stemness gene expression of siRNA-transfected cells; settings: FIG. 15
Description: (§1) MS751 and CaSki were each transfected with siRNAs for BORIS that had been designed to have the sequences shown in the table below in accordance with the protocol described in the Instructions by the manufacturer for the Lipofectamine RNAiMAX used. Cells were analyzed 48 hours after transfection. Trilencer-27 Universal Scrambled Negative Control siRNA (SR30004, Origene) was used as a negative control.

CaSki = test: Sphere formation capability of siRNA-transfected cells; settings: FIG. 16-1(a)
Description: (§2) Sphere formation has been reported as being one of the indicators of cancer stem cell markers in cervical cancer. Therefore, a spheroid formation assay using a low adherent cell culture plate was carried out. Cervical cancer cell lines (CaSki, TCS, MS751, SKG-IIIb, ME-180, and SiHa) were cultured using a multi well plate having an ultra low adherent surface (Ultra Low Attachment 6-well plate, Corning). Adherent cultured cells were peeled off with a solution containing 0.25% trypsin in 2 mM EDTA, and were plated on each well at 10^3 cells/well. As a medium, one prepared by adding to a serum-free DMEM/F-12 medium 20 ng/mL of h-EGF (acquired from R&D systems), 10 ng/mL of b-FGF (acquired from R&D systems), 1% penicillin/streptomycin (acquired from GIBCO), 4 μg/mL of heparin, and a final concentration of 1% of N2 supplement (acquired from WAKO) was used, culturing was carried out under normal culturing conditions for 7 days or 14 days, and formation of spheroids of 100 μm or greater was confirmed for all of the cell lines (FIG. 1). […]
(§3) MS751 and CaSki were each transfected with siRNAs for BORIS that had been designed to have the sequences shown in the table below in accordance with the protocol described in the Instructions by the manufacturer for the Lipofectamine RNAiMAX used. Cells were analyzed 48 hours after transfection. […]

MS751 = test: as above; settings: FIG. 16-1(b)
Description: as §2, §3

CaSki cell line [2] = test: Cell proliferation of siRNA-transfected cells; settings: FIG. 14-1(b), 14-2
Description: as §1

rGrGrArArArUrArCrCrArCrGrArUrGrCrArArArUrUrUrCAT [siRNA2]
Stemness gene suppression (CaSki cell line [1]): did not occur at all | Sphere formation capability (CaSki): markedly suppressed | Sphere formation capability (MS751): markedly suppressed | Cell proliferation (CaSki cell line [2]): slightly suppressed
